The structures appear in SMILES notation. Numbering of substitutions follows the chain as printed. Where a SMILES comes first, the peptide text is derived from it. Bridges are numbered along the chain shown (N, C = ends).

What all share (experiment): Heterologous whole cell competition binding
Conditions in all cases: heterologous competition of 125I-sCT(8-32), whole cells, mean ± S.E.M., SEM

One test addresses T1, hCTR W361A (Homo sapiens, UniProt P30988, W361A).
T1 construct: expressed in transfected cells
T1 sequence (P30988 25-474 W361A): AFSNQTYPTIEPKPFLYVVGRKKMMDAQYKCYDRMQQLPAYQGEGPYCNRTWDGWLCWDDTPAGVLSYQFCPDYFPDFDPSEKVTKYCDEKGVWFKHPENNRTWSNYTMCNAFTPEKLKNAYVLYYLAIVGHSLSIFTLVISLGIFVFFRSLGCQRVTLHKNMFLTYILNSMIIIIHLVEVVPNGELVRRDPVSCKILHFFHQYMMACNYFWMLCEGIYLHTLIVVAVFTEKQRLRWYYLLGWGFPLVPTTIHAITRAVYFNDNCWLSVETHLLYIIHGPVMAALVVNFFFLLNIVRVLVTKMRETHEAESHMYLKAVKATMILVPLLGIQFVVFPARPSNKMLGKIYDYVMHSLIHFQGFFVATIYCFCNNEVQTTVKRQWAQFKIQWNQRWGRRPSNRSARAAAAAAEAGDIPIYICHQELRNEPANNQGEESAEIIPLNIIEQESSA
The method, then: (§1) Following overnight incubation non-bound ligand was removed and radioactivity was determined using a gamma counter.
(§2) Data were corrected for radioligand occupancy using the Cheng-Prusoff equation in Prism; as such data are reported as pKi. Emax and EC50 were estimated from concentration-response curves using with a 3-parameter logistic equation in Prism (v7). These values are a composite of functional affinity, efficacy and stimulus response coupling. […] Significance was accepted at P < 0.05.

For a further test, the target named is T2, hCTR WT (Homo sapiens, UniProt P30988).
T2 construct: expressed in transfected cells
T2 sequence (P30988 25-474): T1 sequence (P30988 25-474 W361A) with A337W
As to the method: as §1, §2

A further test addresses T3, hCTR R362A (Homo sapiens, UniProt P30988, R362A).
T3 construct: expressed in transfected cells
T3 sequence (P30988 25-474 R362A): T1 sequence (P30988 25-474 W361A) with A337W, R338A
As to the method: as §1, §2

Another test concerns the target T4, hCTR H296A (Homo sapiens, UniProt P30988, H296A).
T4 construct: c-Myc (N); expressed in transfected cells
T4 sequence (P30988 25-474 H296A): T1 sequence (P30988 25-474 W361A) with H272A, A337W
As to the method:
as §1, §2

Another test addresses T5, hCTR Y372A (Homo sapiens, UniProt P30988, Y372A).
T5 construct: c-Myc (N); expressed in transfected cells
T5 sequence (P30988 25-474 Y372A): T1 sequence (P30988 25-474 W361A) with A337W, Y348A
The method, then: as §1, §2

With `CSCC[C@H](NC(=O)CNC(=O)[C@H](CO)NC(=O)[C@H](Cc1ccccc1)NC(=O)[C@H](CCCNC(=N)N)NC(=O)[C@H](Cc1c[nH]cn1)NC(=O)[C@H](Cc1ccccc1)NC(=O)[C@H](CC(N)=O)NC(=O)[C@H](CC(N)=O)NC(=O)[C@H](CC(C)C)NC(=O)[C@H](CC(N)=O)NC(=O)[C@H](CCCNC(=N)N)NC(=O)[C@H](Cc1c[nH]c2ccccc12)NC(=O)[C@H](Cc1ccc(O)cc1)NC(=O)[C@H](C)NC(=O)[C@H](CO)NC(=O)[C@H](CC(C)C)NC(=O)[C@@H](NC(=O)[C@@H]1CSSC[C@H](N)C(=O)N[C@@H](CO)C(=O)N[C@@H](CC(N)=O)C(=O)N[C@@H](CC(C)C)C(=O)N[C@@H](CO)C(=O)N[C@@H]([C@@H](C)O)C(=O)N1)C(C)C)C(=O)NCC(=O)N[C@@H](Cc1ccccc1)C(=O)NCC(=O)N1CCC[C@H]1C(=O)N[C@@H](CCC(=O)O)C(=O)N[C@H](C(=O)N1CCC[C@H]1C(N)=O)[C@@H](C)O` [pCT] (H-CSNLSTCVLSAYWRNLNNFHRFSGMGFGPETP-NH2; disulfide 1-7), the Ki (as a rule, the dissociation constant of the complex between target and ligand, obtained from inhibition or displacement) at hCTR W361A is 33.9 nM; at hCTR WT it was 5.37 nM; at hCTR R362A, 46.8 nM; at hCTR H296A, 8.51 nM; at hCTR Y372A, 28.2 nM.

For the origin of these results see publication PMC5908784, “Extracellular loops 2 and 3 of the calcitonin receptor selectively modify agonist binding and efficacy” (Biochemical Pharmacology, 2018).
